Among the data in PubChem BioAssay AID602234 (The Scripps Research Institute Molecular Screening Center, 2012) are IC50 values, retold here.

Each structure is given as a SMILES string. Activity calls are given as the source filed them. The rule behind the calls is not given here.

The assay can be described thus: SRC3 coactivator transcriptional activity inhibitors, dose response, counter-screen for SRC1 inhibitor project, cell-based, luminescence (AID 602234).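 Note: HEK293 cells co-transfected with pGL4.31 reporter and pBIND-SRC3 fusion vector; potency for inhibition of reporter luminescence with Gossypol as full inhibition.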 Conditions: transfected HEK293 cells, counter-screen luciferase reporter.
As for `Oc1ccc(C=NNc2ccccn2)c(O)c1`, the IC50 was 6.53 µM.
Consider `O=C(Nc1cccc(C(F)(F)F)c1)Nc1nnc([C@@H]2C[C@H](O)[C@@H](CO)O2)s1`, for which the concentration for half-maximal inhibition (IC50) was 4.17 µM.
As to `CCn1c(Oc2cccc(Br)c2)nc2c1c(=O)n(C)c(=O)n2C`, the IC50 was 17 µM (inactive).
On to `COc1cccc(NC(=O)CN(C)CC(=O)Nc2ccc(Cl)cc2[N+](=O)[O-])c1`, for which the IC50 was 17.8 µM (inactive).
In the case of `O=C(CCl)NC(Cc1ccccc1)c1ccccc1` (stereo not given), the concentration for half-maximal inhibition (IC50) is 6.42 µM.
With `O=C(CCl)N1N=C(c2ccco2)CC1c1ccco1` (stereo not given), the half-maximal inhibitory concentration (IC50) is 0.762 µM.
For `CN1CCN(c2cccc3c2C(=O)c2ccccc2C3=O)CC1`, the IC50 was > 35.9 µM (inactive).
Turning to `CC(=O)NC(c1cc(Cl)c2cccnc2c1O)C(C)C` (stereo not given), the half-maximal inhibitory concentration (IC50) was 6.32 µM.
Regarding `Cc1noc(/C=C/c2ccco2)c1S(=O)(=O)N1CCC(C(=O)Nc2ccc(Cl)cn2)CC1`, the IC50 was 11.3 µM (inactive).
As for `C=CCn1c(O)c(C(C)=NCc2cc(OC)cc(OC)c2)c(=O)[nH]c1=O`, the IC50 is 1.02 µM.
As for `CCN(C(=O)c1cccc(S(=O)(=O)N(C)C)c1)C12CC3CC(CC(C3)C1)C2`, the figure is 13.8 µM (inactive).
Under `CCN(CC)CCNC(=O)c1ccc(NC(=O)C2CCN(c3ncnc4sc(C)c(C)c34)CC2)cc1` stands 3.94 µM; under `S=C(Nc1ccccc1)Nc1ccc(OCc2ccc(Cl)cc2Cl)cc1`, 1.39 µM.
`Fc1cccc(CSc2nnc3ccc(-c4ccncc4)nn23)c1`: the IC50 is > 35.8 µM (inactive).
In the case of `CCCCCCCC[n+]1c(C)n(-c2ccccc2)c2ccc(NC(C)=O)cc21`, the concentration for half-maximal inhibition (IC50) is 4.36 µM.
As for `Cc1ccc(/C=C2/SC(=S)N(CCCC(=O)Nc3ccc(O)cc3)C2=O)cc1`, the figure is 3.23 µM.
As for `NC(=S)NN=Cc1ccc(OC(=O)COc2cc(Cl)c(Cl)cc2Cl)cn1`, the figure is 7.06 µM.
As for `CCOc1cc(C(N)=O)cc(Br)c1OC`, the IC50 is 6.86 µM.
For `Cc1ccc(NC(=O)C2CCN(c3ncnc4sc(C)c(C)c34)CC2)cc1S(=O)(=O)N(C)C`, the IC50 is > 12 µM (inactive).
For the molecule `C=CCn1c(Oc2ccccc2F)nc2c1c(=O)n(C)c(=O)n2C`, the IC50 is 3.36 µM.
On to `Cc1nc2c(-c3ccc(F)cc3)cnn2c(N)c1-c1ccccc1`, for which the IC50 is 11.4 µM (inactive).
On to `COc1ccccc1-c1cc2nc(-c3ccccc3)cc(N3CCN(C(=O)c4ccco4)CC3)n2n1`, for which the IC50 was 5.66 µM.
Under `CC(C)(C)NC(=O)C1(C)CCC(=O)N1CCCn1ccnc1` (stereo not given) stands 4.51 µM; under `O=C(CCCOc1ccc(Cl)cc1Cl)N/N=C/c1ccccc1O`, 6.32 µM.
In the case of `Cc1ccc2occ(/C=N/NC(=O)c3ccncc3)c(=O)c2c1`, the IC50 is 15.3 µM (inactive).
